Source: patent publication US4935509A (priority 1989, dated 1990)
Read-outs that look alike come from different tables or passages of the source.

Columns and labels:
P388 wild-type cells = experiment: MTT cell count (ID50), P388 wild-type leukemia cells in vitro; format: cell-based, murine; settings: Mus musculus, read-out: ID50 P388/Wild
Experimental: (§1) In the various assays set forth below the colorimetric determination of the number of cells was carried out by the following procedure using MTT.
(§2) 3-(4,5-dimethylthiazol-2-yl)-2,5-dipenyl tetrazolium bromide (MTT) was prepared as a 5 mg/ml stock solution in phosphate buffered saline, filtered through a 0.22 μm filter and stored for up to two weeks at 4° C. while protected from light. For use in the assay it was diluted to 1 mg/ml in a pH 7.2 solution of phenol-red-free RPMI 1640 tissue culture medium supplemented with 1 mM sodium pyruvate and 50 μg/ml gentamycin. The assay was done in flat bottomed 96-well microtiter plates. Culture medium was removed from the wells by inverting and blotting the plate, fifty μl of MTT solution was added to the cells in each well, and each plate was incubated at 37° C. in an atmosphere of 5% CO2 in air. After incubation, each plate was centrifuged for 5 minutes at 8000×g and excess MTT removed by inverting and blotting. Fifty μl of 95% ethanol was added to each well and the plate was shaken (speed 6.5 for 15 minutes) to solubilize the formazan in each well. The optical density of each well was measured using an automatic plate reader with a test wavelength of 570 nm and a reference wavelength of 630 nm.
(§3) The differential in vitro activity of the above compounds as compared to vincristine and vinblastine with regard to P388 wild-type and P388 multiple-drug resistant leukemia was carried out by the following procedure.
(§4) Tissue culture-adapted lines of the P388 wild-type and P388 multiple-drug resistant cells (principally resistant to adriamycin) were obtained from the American Type Culture Collection, Rockville, MD. Experiments were conducted in 96-well microtiter plates with 300 cells from either line seeded in a volume of 200 μl of tissue culture medium (RPMI 1640 supplemented to 10% (v/v) with heat-inactivated fetal bovine serum (FBS) and to […] with 1-glutamine). Cells and varying log^10 dilutions of test compound were added to triplicate sets of wells on the same day and cultures were incubated for 5 days at 37° C. in a humidified atmosphere of 5% CO2 in air. The number of cells per well at the end of the experiment was determined colorimetrically by the reduction of MTT as described above.

[1] = system: P388 multiple-drug resistant cells; experiment: cells; format: cell-based, murine; settings: for Fold-resistance: ID50 resistant cell line divided by ID50 wildtype cell line, 7200 min; for IC50: Mus musculus, read-out: ID50 P3/88/resist.
Experimental: as §1, §2, §3, §4

WI-38 fibroblast = experiment: MTT cell count (ID50), non-transformed human fibroblast cell line WI-38; format: cell-based; parameters: unit not given here; settings: 6 days incubation
Experimental: as §1, §2
(§5) The in vitro effects of the novel compounds as compared to vinblastine and vincristine on three human colon cancer cell lines and one non-transformedhuman cell line were determined by the following procedure.
(§6) The non-transformed human fibroblast cell line, WI-38 and two of the human colon cancer cell lines, COLO-320-DM and HT-29, were obtained from the American Type Culture Collection, Rockville, MD and the third human colon cancer cell line, OM-1, was supplied by E. I. du Pont de Nemours and Co., Inc., Glenholden, PA. Both OM-1 and COLO-320-DM cells were maintained by serial passage in RPMI 1640 tissue culture medium supplemented to 10% (v/v) with heat-inactivated FBS. HT-29 cells were similarly maintained in McCoys 5A tissue culture medium supplemented with 10% heat-inactivated FBS. COLO-320-DM cells were detached by gentle scraping while HT-29 and OM-1 cells were detached using 0.25% trypsin and 0.05% trypsin, 0.5 mM EDTA solutions respectively. All cultures were incubated at 37° C. in a humidified environment of 5% CO2 in air. Experiments were conducted in 96-well flat-bottomed plates. The initial cell seeds per well for each cell line were 4,000 for WI- 38; 2,000 for COLO-320-DM; 750 for HT-29; and 3,000 for OM-1, each in the appropriate tissue culture medium. Cells were plated 24 hours before test compound was added to allow cells to recover from the effects of physical scraping and trypsinization. Varying log10 dilutions of drug were added to triplicate sets of wells and cultures were incubated for 6 days at 37° in a humidified atmosphere of 5% CO2 in air. The number of cells per well at the end of the experiment was determined colorimetrically by the reduction of MTT as described above and the results for each compounds shown in Table II. For purposes of comparison, the concentration of each test compound required to reduce the final cell number to one-half of the number in drug-free control cultures (ID50) is shown in Table II.

COLO-320-DM = experiment: MTT cell count (ID50), human colon cancer cell line COLO-320-DM; format: cell-based; settings: 144 h, read-out: ID50 COLO-320
Experimental: as §1, §2, §5, §6

HT-29 = experiment: MTT cell count (ID50), human colon cancer cell line HT-29; format: cell-based; settings: HT-29, 144 h, read-out: ID50 HT-29
Experimental: as §1, §2, §5, §6

OM-1 = experiment: MTT cell count (ID50), human colon cancer cell line OM-1; format: cell-based; settings: 144 h, read-out: ID50 OM-1
Experimental: as §1, §2, §5, §6

[2] = In vivo effect against P388 leukemia in mice (TD50, ED50, T.I.); settings: mouse, in vivo, ip
Description: (§7) The in vivo effect of the novel compounds of this invention against P388 leukemia as compared to vinblastine and vincristine, were compared by the following procedure.
(§8) P388 murine leukemia cells were obtained from Southern Research Institute, Birmingham, Ala., and were maintained by serial i.p. passage in C57BL/6 mice. Female (C57BL/6×DBA/2) F1 (BDF) mice of 6-8 weeks of age from Jackson Laboratories, Bar Harbor, Maine, received 1×10^6 P388 cells by i.p. inoculation on day 0. Compounds were dissolved in saline and administered i.p. to 10 tumor-bearing mice per dose level on days 0-4 and 7-9 using 5 to 10 log2 dilutions from a concentration known to be toxic. […] The therapeutic index (T.I.) for each compound was calculated by the formula: [formula]

P388 leukemia [3] = experiment: as above; settings: for T.I. (therapeutic index): calculated from TD50 and ED50; for ED50: Mus musculus, P388, ip; for cured tumor-bearing mice at doses which were not toxic: P388 leukemia mice, non-toxic doses
Description: as §7, §8

P388 leukemia [4] = experiment: Increase in mean survival time of mice bearing P388 leukemia; format: in vivo; settings: 0.12 mg/kg (optimal dose), i.p.
Experimental: The efficacy of the remaining compounds is clearly documented by the fact that each increased the mean survival time of tumor-bearing mice in a dose-dependentmanner. […] The percent increase in mean survival time (MST) which appears in Table IV was calculated by the following formula: [formula]

[5] = 120 h, P388 wild-type, 5 days incubation, MTT
[6] = 120 h, P388 multiple-drug-resistant (principally adriamycin), 5 days incubation, MTT

SMILES | IC50 (P388 wild-type cells; P388, 120 h) | Fold-resistance [1] | IC50 ([1]; P388, 120 h) | ID50 WI-38 fibroblast (WI-38 fibroblast) | IC50 (COLO-320-DM) | IC50 (HT-29) | IC50 (OM-1) | LD50 [2] | T.I. (therapeutic index) (P388 leukemia [3]) | Mean Survival Time (P388 leukemia [4]; vehicle 9.6 days (A), 10.1 days (E)) | Increase in MST (P388 leukemia [4]; vs vehicle) | ED50 (P388 leukemia [3]) | cured tumor-bearing mice at doses which were not toxic (P388 leukemia [3]) | IC50 (P388 wild-type cells; [5]) | IC50 [1, 6] | IC50 (COLO-320-DM; 6 days incubation, MTT) | IC50 (HT-29; 6 days incubation, MTT) | IC50 (OM-1; 6 days incubation, MTT)
CC[C@]12C=CCN3CC[C@@]4(c5cc([C@@]6(C(=O)OC)C[C@H]7CN(CCc8c6[nH]c6ccccc86)Cc6ccccc67)c(OC)cc5N(C)[C@H]4[C@@](O)(C(=O)OC)[C@@H]1OC(C)=O)[C@@H]32 [A, (9R,11S)-15-[1,2,4,9,10,11,12,17-octahydro-11-(methoxycarbonyl)-indolo(2',3':6,7)azonino(1,2,3-bc)isoquinolin-11-yl]vindoline] | 95 nM | 4 | 400 nM | 4 × 10^-7 | 400 nM | 30 nM | 400 nM | 0.28 mg/kg | < 1 | 19.7 days | 105% | – | – | – | – | – | – | –
CC[C@]12C=CCN3CC[C@@]4(c5cc([C@@]6(C(=O)OC)C[C@H]7CN(CCc8c6[nH]c6ccccc86)Cc6ccccc67)c(OC)cc5N(C=O)[C@H]4[C@@](O)(C(=O)OC)[C@@H]1OC(C)=O)[C@@H]32 [Compound B, (9R,11S)-15-[1,2,4,9,10,11,12,17-octahydro-11-(methoxycarbonyl)-indolo(2',3':6,7)azonino(1,2,3-bc)isoquinolin-11-yl]N-demethyl-N-formylvindoline] | 47 nM | 11 | 510 nM | 1 × 10^-7 | 300 nM | 20 nM | 60 nM | 0.092 mg/kg | 4.6 | – | – | 0.02 mg/kg | 50% | – | – | – | – | –
CC[C@]12C=CCN3CC[C@@]4(c5cc([C@@]6(C(=O)OC)C[C@H]7CN(CCc8c6[nH]c6ccccc86)C[C@@H]6CCCC[C@H]76)c(OC)cc5N(C=O)[C@H]4[C@@](O)(C(=O)OC)[C@@H]1OC(C)=O)[C@@H]32 [Compound F, (4aR,8aS,9R,11S)-15-[1,2,4,4a,5,6,7,8,8a,9,10,11,12,17-tetradecahydro-11-(methoxycarbonyl)-indolo(2',3':6,7,)azonino(1,2,3-bc)isoquinolin-11-yl]N-demethyl-N-formylvindoline] | 38 nM | 12 | 450 nM | 1 × 10^-7 | 400 nM | 30 nM | 20 nM | 0.045 mg/kg | 2.8 | – | – | 0.016 mg/kg | 50% | – | – | – | – | –
CC[C@]1(O)C[C@@H]2CN(CCc3c([nH]c4ccccc34)[C@@](C(=O)OC)(c3cc4c(cc3OC)N(C)[C@H]3[C@@](O)(C(=O)OC)[C@H](OC(C)=O)[C@]5(CC)C=CCN6CC[C@]43[C@@H]65)C2)C1 [Vinblastine, reference compound] | – | 16 | – | 5 × 10^-8 | – | – | – | 0.79 mg/kg | 1.9 | – | – | 0.41 mg/kg | – | 19 nM | 310 nM | 50 nM | 30 nM | 50 nM
CC[C@]1(O)C[C@H]2CN(CCc3c([nH]c4ccccc34)[C@@](C(=O)OC)(c3cc4c(cc3OC)N(C=O)[C@H]3[C@@](O)(C(=O)OC)[C@H](OC(C)=O)[C@]5(CC)C=CCN6CC[C@]43[C@@H]65)C2)C1 [Vincristine, reference compound] | – | 57 | – | 7 × 10^-8 | – | – | – | 1 mg/kg | 5.9 | – | – | 0.17 mg/kg | – | 7.2 nM | 410 nM | 400 nM | 30 nM | 50 nM
